Measured values from patent US6875569B2, “Modified lepidopteran receptors and hybrid multifunctional proteins for use in transcription and regulation of transgene expression” (The Salk Institute for Biological Studies, priority 1997, dated 2005).
“Also recorded” adds a separate entry of the source. Like-named read-outs stand apart in the source and are kept apart here.

What was measured:
[1] = tested on: modified bombyx hormone receptor (VbR); format: cell-based, bombyx mori
Method: (§1) Transient transfection experiments in CV-1 cells or 293 cells using modified drosophila ecdysone receptor (VdEcR) or modified bombyx hormone receptor (VbR) with or without dimer partners as described. Luc activity is examined 40 hours after transfection and stimulation with ligand (FIG. 2A). Both receptors are assayed in CV-1 cells with 1 μM MurA and no exogenous dimer partner. […] Both receptors are also assayed in the presence of 5 μg/ml tebufenozide (FIG. 2B). […] Both receptors are also assayed with and without dimer partners. VbR was stimulated with 5 μg/ml tebufenozide and VdEcR was stimulated with 1 μM MurA. […] VbR, with no exogenous dimer partner, has an extremely low base-line which is stimulated 200-300 fold by ligand. Note also from this experiment that VdEcR tends to have a much higher baseline than VbR without dimer partner.
(§2) Tebufenozide is administered to cells co-transfected with nucleic acids encoding receptors: LINX (which encodes the tet-transactivator (TTA)), VbR, TTMT (which encodes the TTA-VbR fusion protein, and TTMT-2V which is like TTMT, but with two VP16 t-domains), to assay for EcRELuc activity (FIG. 2C). Note that teb stimulates VbR, and the TTMT fusions, but has no action on TTA (LINX). The same experiment as that described for 2C, only with a TetO-Luc reporter which responds only to TTA or fusion proteins is summarized in FIG. 2D. […] Note that in this experiment, TTMT and TTMT-2V work better than TTA only (LINX) to stimulate the TetO-luc promoter/reporter. […] An experiment on CV-1 cells transfected with TTMT and two reporters: 6TetO-luc and 4-EcRE-bgalactosidase show both promoters could be simultaneously influenced by the presence or absence of both ligands (FIG. 2E).
Transient transfections are performed by calcium-phosphate coprecipitation employing standard methods (see Sambrook et al., in Molecular Cloning: A Laboratory Manual. Cold Spring Harbor Press, New York, N.Y. (1989)). All tissue culture experiments are performed using DMEM 10% FBS in a 10% CO2 incubator unless otherwise specified. All transfections are performed in triplicate in 24-well Costar plates using CV-1 cells at an approximately 5×10^4 plating density. Immediately following transfection, 1 μm ligand in 20% EtOH/PBS is added to wells. After 40 additional hours of incubation, cells are harvested and luciferase activity measured in an analytical bioluminescence photometer. Cell extracts are simultaneously examined for LacZ activity of the internal control by standard methods. Bar graph levels represent relative luciferase activity after correction using internal control values.

[2] = tested on: modified drosophila ecdysone receptor (VdEcR); format: cell-based
Method: as §1
(§3) Transient transfections are performed by calcium-phosphate coprecipitation employing standard methods (see Sambrook et al., in Molecular Cloning: A Laboratory Manual. Cold Spring Harbor Press, New York, N.Y. (1989)). All tissue culture experiments are performed using DMEM 10% FBS in a 10% CO2 incubator unless otherwise specified. […] After 40 additional hours of incubation, cells are harvested and luciferase activity measured in an analytical bioluminescence photometer. […]

tet-transactivator (TTA) = target: T1, tet-transactivator (TTA) (Escherichia coli, UniProt P04483); test: EcRE-Luc reporter co-transfected with LINX; format: cell-based; conditions: FIG. 2C
T1 construct: expressed in transfected cells; host or cells: CV-1 cells
T1 sequence (P04483 whole entry, added parts left off): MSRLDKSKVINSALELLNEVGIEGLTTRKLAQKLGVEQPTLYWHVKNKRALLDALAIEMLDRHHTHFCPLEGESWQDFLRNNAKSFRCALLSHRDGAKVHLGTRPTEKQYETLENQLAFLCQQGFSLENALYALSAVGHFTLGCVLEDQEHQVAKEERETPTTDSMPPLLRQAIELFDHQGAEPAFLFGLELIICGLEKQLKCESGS
Method: as §2, §3

[3] = tested on: TTMT (TTA-VbR fusion protein); test: EcRE-Luc reporter co-transfected with TTMT; format: cell-based; conditions: FIG. 2C
Method: as §2, §3

[4] = tested on: TTMT-2V (TTMT with two VP16 t-domains); test: EcRE-Luc reporter co-transfected with TTMT-2V; format: cell-based; conditions: FIG. 2C
Method: as §2, §3

VbR = test: Transgene regulation in stably infected rat fibroblasts (MARSHA reporter, VbR retroviral vector); format: cell-based, bombyx mori; conditions: 0.25 μg/ml teb vs higher levels; VbR-luc clonal fibroblast line and VbR-GH clonal line, FIG. 3; listed as teb
[5] = tested on: mammals and other non-insect species; conditions: extensive testing in animal hosts; previously reported; cited from earlier work

| Structure (SMILES) | stimulation of VbR, side-by side comparison ([1]; 1 μM MurA) | response of bR (Luc activity) ([1]; CV-1 cells, 1 μM MurA, no exogenous dimer partner) | dimer partner requirement for VdEcR stimulation ([2]; 1 μM MurA, with and without dimer partners) | stimulation of VbR, side-by side comparison ([1]; 2.5 μg/ml teb) | stimulation of VbR over base-line by ligand ([1]; 5 μg/ml tebufenozide, VbR with no exogenous dimer partner, experiment with and without dimer partners) | effect of ligand on VbR in the presence of exogenous dimer partner ([1]; 5 μg/ml tebufenozide, exogenous dimer partner (RXR, Usp) present, VbR constitutively activated) | induction of Luc activity by VbR ([1]; 5 μg/ml tebufenozide, no exogenous dimer partner, 40 hours after transfection) | EcRE-Luc activity with VbR ([1]; EcRE-Luc reporter, FIG. 2C) | response of drosophila EcR (Luc activity) ([2]; 5 μg/ml tebufenozide) | EcRE-Luc activity with TTA (LINX) (tet-transactivator (TTA)) | EcRE-Luc activity with TTMT [3] | EcRE-Luc activity with TTMT-2V [4] | stimulation of full transgene activity, dose comparison (VbR) | toxicity to mammals [5] |
| --- | --- | --- | --- | --- | --- | --- | --- | --- | --- | --- | --- | --- | --- | --- |
| CC(C)CC[C@@H](O)[C@](C)(O)[C@H]1CC[C@@]2(O)C3=CC(=O)[C@]4(O)C[C@@H](O)[C@@H](O)C[C@]4(C)[C@H]3[C@H](O)C[C@]12C [MurA, muristerone A] | effective at stimulating VbR | responds | RXR and Usp are necessary for VdEcR | – | – | – | – | – | – | – | – | – | – | – |
| CCc1ccc(C(=O)NN(C(=O)c2cc(C)cc(C)c2)C(C)(C)C)cc1 [tebufenozide] | – | – | – | effective at stimulating VbR | 200-300 fold | inhibited by ligand addition | greater than 200 fold | stimulates | does not respond at all, and in fact, decreases slightly; also recorded: responds weakly, if at all | no action | stimulates | stimulates | as effective at stimulating full activity as higher levels; also recorded: as effective as higher levels for stimulating full activity | very low toxicity |
